Experimental data published in patent publication US20090182019A1, “Histone deacetylase inhibitors” (The Johns Hopkins University, priority 2005, published 2009).
pIC50: −log10 of the molar value. Counter-ions that a name gives are not always drawn.

Columns and labels:
[1] = tested on: HDAC; assay: Inhibition of isolated HDAC, commercial Fluor de Lys assay (HeLa cell nuclear extract); format: biochemical; details: 1 μM inhibitor; average of three determinations
Protocol: This is a facile and rapid 96-well plate-based assay that is suitable for use as a high throughput screen. The reaction mixture contains a HeLa cell nuclear extract and a commercial substrate containing acetylated lysine side chains. The substrate and extract are incubated in the presence of the appropriate concentration of the inhibitor. Deacetylation of the substrate followed by mixing with the provided developer generates a fluorophore. Comparison of inhibited vs. control relative fluorescence using a standard plate reader is employed to determine percent HDAC activity remaining. All determinations can be carried out in triplicate, and reported values can be the average of these determinations.
Compounds were evaluated for their ability to inhibit isolated HDAC at 1 μM in the Fluor de Lys™ assay system.

[2] = tested on: HDAC; assay: as above; format: biochemical; set-up: dose or concentration left out as unconfirmed; details: TSA as positive control
[3] = tested on: ML-1 human myelocytic leukemia line; assay: Cell viability in ML-1 cells, direct cell count; format: cell-based; details: ML1, 3 and 7 days of exposure, read-out: IC50, toxicity to ML-1 cells (direct cell count)
Protocol: ML-1 cells were maintained in RPMI medium supplemented with 10% fetal calf serum, 0.1 mg/mL gentamicin, and 2 mM L-glutamine. 3×10^5 cells/ml were treated with 1 (Wako Pure Chemicals, Richmond, Va.), 2 (Mitsui Pharmaceuticals, Chiba, Japan) and the desired test compound for the concentration and time indicated in the figure legend.
(§1) Compound 19 was evaluated in a series of cell viability studies in the ML-1 human myelocytic leukemia line. The results of these studies are outlined in FIGS. 4-7. Compound 19, as well as the positive controls TSA and MS-275, were compared at concentrations between 0.1 and 100 μM, and cell viability was determined in the ML-1 cultured cell preparation at 3 days (FIG. 4) and 7 days (FIG. 5) using a standard MTT assay. […] In a separate set experiments, cell viability was determined under the same conditions by direct cell count. As before, TSA and MS-275 produced significant toxicity at both 3 and 7 days, again with IC50 values less than 10 μM.

[4] = tested on: ML-1 human myelocytic leukemia line; assay: Cell viability in ML-1 cells, MTT assay; format: cell-based; details: ML1, 3 days and 7 days of exposure, 0.1 to 100 μM, read-out: IC50, toxicity to ML-1 cells (MTT)
Text: The well characterized ML-1 human myelocytic leukemia cell line was used to obtain the results presented below in the Examples section. This line has a well characterized response to HDAC inhibitors and is amenable for use in rapid in vitro screening of compounds to evaluate growth inhibitory effects. In addition to the ML-1 cells, the well characterized HCT 116 human colon adenocarcinoma may be used. […]
The MTT (3-[4,5-dimethylthiazol-2-yl]2,5-diphenyl tetrazolium bromide) reduction assay for growth inhibition studies may also be employed. […] HCT 116 cells are seeded at a density of 5×10^4 cells/ml and ML-1 cells are seeded at 2×10^4/ml and are treated for a period of 96 hr prior to dye reduction and plate reading. […]
as §1, with “The results of these studies are outlined in FIGS. 4-7.” left out, “As before, TSA and MS-275 produced significant toxicity at both 3 and 7 days, again with IC50 values less than 10 μM.” left out

SMILES | Inhibition of HDAC at 1 μM (%) [1] | further results
Cc1ccc(CNCCCCNC(=O)CCCCC(=O)NO)cc1 [Compound 7, 5-{4-[4-(Methyl)benzyl]aminobutyl}carbamoylpentanohydroxamic Acid] | 44.17% | 
CN(C)c1ccc(CNCCCCNC(=O)CCCCCCC(=O)NO)cc1 [Compound 12, 7-{4-[4-N,N-(Dimethylamino)benzyl]aminobutyl}-carbamoylheptanohydroxamic Acid] | 33.89% | 
O=C(CCCCC(=O)NCCCNCCCNCCCNCCCNCC1CCCCCC1)NO [Compound 9, 22-(N-[2-(Cycloheptyl)methyl]amino)-6-oxo-7,11,15,19-tetraazadocosanohydroxamic Acid] | 41.03% | 
CN(C)c1ccc(CNCCCCNC(=O)CCCCC(=O)NO)cc1 [Compound 16, 5-{4-[4-N,N-(Dimethyl)aminobenzyl]amino}butylcarbamoylpentanohydroxamic Acid] | 10.32% | 
O=C(CCCCCC(=O)NCCCNCCCCNCCC(c1ccccc1)c1ccccc1)NO [Compound 70] | 46% | 
Cc1ccc(CNCCCCNC(=O)CCCCCCC(=O)NO)cc1 [Compound 17, 7-{4-[4-(Methyl)benzyl]aminobutyl}carbamoylheptanohydroxamic Acid] | 53.2% | 
O=C(CCCCCCCCC(=O)NCCCNCCCCNCCC(c1ccccc1)c1ccccc1)NO [Compound 69] | 73% | 
O=C(CCCCC(=O)NCCCNCCCCNCCC(c1ccccc1)c1ccccc1)NO [Compound 20, 15-N-[4-(3,3-diphenyl)propyl]amino-6-oxo-7,11-diazapentadecanohydroxamic Acid dihydrobromide] | 19.75% | 
O=C(CCCCC(=O)NCCCCN(Cc1ccccc1-c1ccccc1)Cc1ccccc1-c1ccccc1)NO [Compound 10] | 3.74% | 
CN(C)c1ccc(CN(CCCNCCCCN)C(=O)CCCCCCC(=O)NO)cc1 [Compound 72] | 58% | 
CN(C)c1ccc(CCNCCCCNCCCNC(=O)CCCCCCC(=O)NO)cc1 [Compound 68] | 46% | 
CC(C)(C)c1ccc(CNCCCCNCCCNC(=O)CCCCC(=O)O)cc1 [Compound 13] | 1.48% | 
CN(C)c1ccc(CN(CCCCN)C(=O)CCCCCCC(=O)NO)cc1 [Compound 18, 7-{[4-(Amino)butyl]-N-[4-(dimethylaminobenzyl)-carbamoyl]}heptanohydroxamic Acid] | 15.6% | 
CC(C)(C)c1ccc(CNCCCCNCCCNC(=O)CCCCCCC(=O)NO)cc1 [Compound 15, dihydrobromide] | 49.36% | 
CN(C)c1ccc(CN(CCCNCCCCN)C(=O)CCCCC(=O)NO)cc1 [Compound 14] | 59.99% | Dose-response for inhibition of HDAC (relative potency) [2]: essentially equipotent
O=C(CCCCCCCC(=O)NCCCNCCCCNCCC(c1ccccc1)c1ccccc1)NO [Compound 71] | 54% | 
O=C(CCCCC(=O)NCCCCNCc1ccccc1-c1ccccc1)NO [Compound 5, 5-{4-[2-(Phenyl)benzyl]aminobutyl}carbamoylpentanohydroxamic Acid] | 16.34% | 
CC(/C=C/C(=O)NO)=C\[C@@H](C)C(=O)c1ccc(N(C)C)cc1 [Compound 1, trichostatin] | 100% | pIC50 [3]: > 5.00; pIC50 [4]: > 5.00
O=C(CCCCCCC(=O)NCCCNCCCNCCCNCCC(c1ccccc1)c1ccccc1)NO [Compound 67] | 55% | 
CC(C)(C)c1ccc(CNCCCCNCCCNC(=O)CCCCC(=O)NO)cc1 [Compound 11, 15-N-[(4-tert-Butyl)benzyl]amino-6-oxo-7,11-diazapentadecanohydroxamic Acid dihydrobromide] | 74.86% | Dose-response for inhibition of HDAC (relative potency) [2]: essentially equipotent
Nc1ccccc1NC(=O)c1ccc(CNC(=O)OCc2cccnc2)cc1 [Compound 2, MS-275] | 100% | pIC50 [3]: > 5.00; pIC50 [4]: > 5.00
